# Tested on: hepatocytes
# Assay: RNA-seq of hepatocytes treated with Phase III failure compounds
# Details: hepatocytes
# Protocol: RNA-seq was performed to determine the effects of the compounds on hepatocytes.
# Significance was determined by the criteria of FPKM≥0.5, a log 2(fold-change)≥1, and a […].
structure (smiles),measurement,setting,value
"CCC(CC)[C@H](NC(C)=O)[C@@H]1[C@H](O)[C@@H](C(=O)O)C[C@H]1NC(=N)N.O.O.O [peramivir (trihydrate), peramivir]",RNA-seq results: MCCC1 expression,gene MCCC1,−0.27
same,RNA-seq results: MCCC2 expression,gene MCCC2,−0.31
same,RNA-seq results: MCM6 expression,gene MCM6,−0.34
same,RNA-seq results: MEN1 expression,gene MEN1,0.18
same,RNA-seq results: MET expression,gene MET,−0.27
same,RNA-seq results: MGAT2 expression,gene MGAT2,−0.09
same,RNA-seq results: MKS1 expression,gene MKS1,0.23
same,RNA-seq results: MLH1 expression,gene MLH1,−0.18
same,RNA-seq results: MMAA expression,gene MMAA,−0.25
same,RNA-seq results: MMAB expression,gene MMAB,−0.09
same,RNA-seq results: MMADHC expression,gene MMADHC,−0.38
same,RNA-seq results: MOCS1 expression,gene MOCS1,0.03
same,RNA-seq results: MOGAT2 expression,gene MOGAT2,0.66
same,RNA-seq results: MOGS expression,gene MOGS,0.33
same,RNA-seq results: MPZ expression,gene MPZ,0.37
same,RNA-seq results: MRPL3 expression,gene MRPL3,−0.47
same,RNA-seq results: MTHFR expression,gene MTHFR,0.37
same,RNA-seq results: MTM1 expression,gene MTM1,−0.29
same,RNA-seq results: MTO1 expression,gene MTO1,−0.13
same,RNA-seq results: MTR expression,gene MTR,0.10
same,RNA-seq results: MTRR expression,gene MTRR,−0.43
same,RNA-seq results: MTTP expression,gene MTTP,−0.18
same,RNA-seq results: MVK expression,gene MVK,0.07
same,RNA-seq results: MYH9 expression,gene MYH9,0.20
same,RNA-seq results: MYO5B expression,gene MYO5B,−0.08
same,RNA-seq results: NAGS expression,gene NAGS,0.31
same,RNA-seq results: NARS2 expression,gene NARS2,−0.42
same,RNA-seq results: NAT2 expression,gene NAT2,−0.40
same,RNA-seq results: NBAS expression,gene NBAS,−0.22
same,RNA-seq results: NCF2 expression,gene NCF2,−0.20
same,RNA-seq results: NEK1 expression,gene NEK1,−0.22
same,RNA-seq results: NEK8 expression,gene NEK8,0.47
same,RNA-seq results: NEU1 expression,gene NEU1,−0.25
same,RNA-seq results: NFKB2 expression,gene NFKB2,0.30
same,RNA-seq results: NFKBIA expression,gene NFKBIA,−0.19
same,RNA-seq results: NFU1 expression,gene NFU1,−0.52
same,RNA-seq results: NGLY1 expression,gene NGLY1,−0.40
same,RNA-seq results: NHP2 expression,gene NHP2,0.65
same,RNA-seq results: NME1 expression,gene NME1,0.00
same,RNA-seq results: NOD2 expression,gene NOD2,0.30
same,RNA-seq results: NOP10 expression,gene NOP10,0.03
same,RNA-seq results: NOTCH1 expression,gene NOTCH1,0.23
same,RNA-seq results: NOTCH2 expression,gene NOTCH2,0.01
same,RNA-seq results: NPC1 expression,gene NPC1,−0.09
same,RNA-seq results: NR1H4 expression,gene NR1H4,0.00
same,RNA-seq results: NUBPL expression,gene NUBPL,−0.11
same,RNA-seq results: NUDT7 expression,gene NUDT7,−0.70
same,RNA-seq results: NUDT12 expression,gene NUDT12,−0.32
same,RNA-seq results: OAT expression,gene OAT,−0.40
same,RNA-seq results: OPA3 expression,gene OPA3,0.14
same,RNA-seq results: OTC expression,gene OTC,−0.33
same,RNA-seq results: PAF1 expression,gene PAF1,−0.04
same,RNA-seq results: PAH expression,gene PAH,−0.22
same,RNA-seq results: PANK2 expression,gene PANK2,−0.22
same,RNA-seq results: PAOX expression,gene PAOX,−0.04
same,RNA-seq results: PC expression,gene PC,0.27
same,RNA-seq results: PCCA expression,gene PCCA,−0.23
same,RNA-seq results: PCK2 expression,gene PCK2,0.18
same,RNA-seq results: PCSK9 expression,gene PCSK9,0.46
same,RNA-seq results: PCYT1A expression,gene PCYT1A,−0.07
same,RNA-seq results: PDGFRA expression,gene PDGFRA,−0.06
same,RNA-seq results: PDP1 expression,gene PDP1,−0.30
same,RNA-seq results: PEPD expression,gene PEPD,0.03
same,RNA-seq results: PEX11A expression,gene PEX11A,−0.27
same,RNA-seq results: PEX12 expression,gene PEX12,−0.20
same,RNA-seq results: PEX14 expression,gene PEX14,0.19
same,RNA-seq results: PFKM expression,gene PFKM,0.45
same,RNA-seq results: PGM1 expression,gene PGM1,−0.24
same,RNA-seq results: PHGDH expression,gene PHGDH,0.38
same,RNA-seq results: PHKA1 expression,gene PHKA1,−0.18
same,RNA-seq results: PHKA2 expression,gene PHKA2,0.11
same,RNA-seq results: PHKB expression,gene PHKB,−0.39
same,RNA-seq results: PHYH expression,gene PHYH,−0.26
same,RNA-seq results: PIEZO1 expression,gene PIEZO1,0.30
same,RNA-seq results: PIGA expression,gene PIGA,−0.37
same,RNA-seq results: PIGM expression,gene PIGM,−0.35
same,RNA-seq results: PKD1 expression,gene PKD1,0.61
same,RNA-seq results: PKD2 expression,gene PKD2,0.28
same,RNA-seq results: PKHD1 expression,gene PKHD1,0.34
same,RNA-seq results: PKLR expression,gene PKLR,0.35
same,RNA-seq results: PLA2G6 expression,gene PLA2G6,0.59
same,RNA-seq results: PLEKHM1 expression,gene PLEKHM1,0.10
same,RNA-seq results: PMVK expression,gene PMVK,0.39
same,RNA-seq results: PNP,gene PNP,−0.40
same,RNA-seq results: PNPLA2,gene PNPLA2,0.02
same,"RNA-seq results, POLD1",gene POLD1,0.24
same,RNA-seq results: POLD1,gene POLD1,0.30
same,"RNA-seq results, POLG2",gene POLG2,0.19
same,RNA-seq results: POLG2,gene POLG2,0.22
same,"RNA-seq results, POLG",gene POLG,0.03
same,RNA-seq results: POLG,gene POLG,0.10
same,"RNA-seq results, POR",gene POR,0.82
same,RNA-seq results: POR,gene POR,0.16
same,"RNA-seq results, PPAPDC2",gene PPAPDC2,−0.01
same,RNA-seq results: PPAPDC2,gene PPAPDC2,−0.14
same,"RNA-seq results, PPARA",gene PPARA,0.09
same,RNA-seq results: PPARA,gene PPARA,−0.14
same,"RNA-seq results, PPARG",gene PPARG,0.16
same,RNA-seq results: PPARG,gene PPARG,−0.47
same,"RNA-seq results, PPM1K",gene PPM1K,0.13
same,RNA-seq results: PPM1K,gene PPM1K,−0.24
same,"RNA-seq results, PRKCD",gene PRKCD,0.03
same,RNA-seq results: PRKCD,gene PRKCD,0.06
same,"RNA-seq results, PRODH",gene PRODH,0.2
same,RNA-seq results: PRODH,gene PRODH,−0.14
same,"RNA-seq results, PROS1",gene PROS1,−0.19
same,RNA-seq results: PROS1,gene PROS1,−0.20
same,"RNA-seq results, PROZ",gene PROZ,0.28
same,RNA-seq results: PROZ,gene PROZ,0.10
same,"RNA-seq results, PSAT1",gene PSAT1,0.26
same,RNA-seq results: PSAT1,gene PSAT1,−0.18
same,"RNA-seq results, PSMB8",gene PSMB8,0.02
same,RNA-seq results: PSMB8,gene PSMB8,0.08
same,"RNA-seq results, PSPH",gene PSPH,0.05
same,RNA-seq results: PSPH,gene PSPH,−0.12
same,"RNA-seq results, PTCH1",gene PTCH1,0.28
same,RNA-seq results: PTCH1,gene PTCH1,0.20
same,"RNA-seq results, PTRF",gene PTRF,−0.15
same,RNA-seq results: PTRF,gene PTRF,0.25

# Source: patent US20210254056A1, “IDENTIFICATION AND TARGETED MODULATION OF GENE SIGNALING NETWORKS” (CAMP4 THERAPEUTICS CORPORATION, priority 2017, published 2021)
